Assay results: patent US5164381A, “Pharmacologically active 1,5-diaryl-3-substituted pyrazoles and method for synthesizing the same” (Ortho Pharmaceutical Corporation, priority 1991, dated 1992)

The compounds below were run on Lewis strain laboratory rats (assay: In vivo alleviation of inflammation: polyarthritis (adjuvant, Mycobacterium butyricum) in rats, inhibition of paw volume increase). Conditions: Rattus norvegicus, po, rat; read-out: ED50 (effective dose to obtain a 50% inhibition of inflammation).
Experimental: Polyarthritis was induced in Lewis strain laboratory rats (weight=about 200 grams) by injection of a suspension of Mycobacterium butyricum in mineral oil into the subplantar tissue of the mammal's hind paws. On day 10 after the injection, the rats were assigned to groups, and paw volumes and body weights were recorded. Paw volumes of the contralateral, uninjected hind paw were determined by mercury plethylsmography. Per oral (p.o.) dosing began and continued for five consecutive days thereafter. On day 14 after the initial injection, approximately four hours after the final dose was administered, paw volumes and body weights were recorded and quantitated.
Anti-inflammatory activity of the substituted pyrazole compounds is expressed as the percent inhibition of paw volume increase.

SMILES | ED50 [mg/kg]
COc1ccc(-n2nc(CCC(=O)N(C)OC(=O)CCl)cc2-c2ccc(Cl)cc2)cc1 [Compound 139, 3-[5-(4-Chlorophenyl)-1-(4-methoxyphenyl)-3-pyrazolyl]N-chloroacetyloxy-N-methylpropanamide] | 6
COc1ccc(-n2nc(CCCN(O)C(=O)C(=O)NO)cc2-c2ccc(Cl)cc2)cc1 [Compound 158, N-[3-[5-(4-Chlorophenyl)-1-(4-methoxyphenyl)-3-pyrazolyl]propyl]-N,N'-dihydroxyoxamide] | 33.4
COc1ccc(-n2nc(CCCO)cc2-c2ccc(Cl)cc2)cc1 [Compound 2, 5-(4-Chlorophenyl)-3-(3-hydroxypropyl)-1-(4-methoxyphenyl) pyrazole] | 3.6
COc1ccc(-n2nc(CCCO)cc2-c2ccc(C(F)(F)F)cc2)cc1 [Compound 56, 5-(4-trifluoromethylphenyl)-3-(3-hydroxypropyl)-1-(4-methoxyphenyl) pyrazole] | 3
COc1ccc(-n2nc(CCC(=O)N(C)OC(=O)CN(C)C)cc2-c2ccc(Cl)cc2)cc1 [Compound 134, 3-[5-(4-Chlorophenyl)-1-(4-methoxyphenyl)-3-pyrazolyl]-N',N'-dimethylglycinyloxy-N-methylpropanamide] | 12.5

Same assay, conditions: p.o., rat

SMILES | ED50 (effective dose to obtain a 50% inhibition of inflammation) [mpk]
COc1ccc(-n2nc(CCC(=O)O)cc2-c2ccc(Cl)cc2)cc1 [Compound 12, 3-[5-(4-Chlorophenyl)-1-(4-methoxyphenyl)-3-pyrazolyl] propionic acid] | 5.2

Same assay, conditions: po, 336 h; 10 mpk p.o., rat; read-out: % INH. p.o. (percentage inhibition of pad swelling)

SMILES | inhibition in vivo at 10 mg/kg [%]
COc1ccc(-n2nc(CCCN(O)C(=O)c3ccccc3)cc2-c2ccc(Cl)cc2)cc1 [Compound 155] | 45
CCc1ccc(-c2cc(CCC(=O)O)nn2-c2ccc(OC)cc2)cc1 [Compound 110] | 51
COc1ccc(-n2nc(CCC(=O)N(C)O)cc2-c2ccccc2C)cc1 [Compound 118] | 6
CCN(CC)C(=O)CCC(=O)ON(C)C(=O)CCc1cc(-c2ccc(Cl)cc2)n(-c2ccc(OC)cc2)n1 [Compound 137] | 54
COc1ccc(-n2nc(CCC(=O)O)cc2-c2ccc(C)cc2)cc1 [Compound 105] | 87
COCC(=O)ON(C)C(=O)CCc1cc(-c2ccc(Cl)cc2)n(-c2ccc(OC)cc2)n1 [Compound 142] | 67
CCOC(=O)C(=O)N(O)CCCc1cc(-c2ccc(Cl)cc2)n(-c2ccc(OC)cc2)n1 [Compound 157, Ethyl N-[3-[5-(4-chlorophenyl)-1-(4-methoxyphenyl)-3-pyrazolyl]-propyl]-hydroxyoxamate] | 51
CCCCCCCCNC(=O)CCc1cc(-c2ccc(Cl)cc2)n(-c2ccc(OC)cc2)n1 [Compound 186] | 37
COc1ccc(-n2nc(CCCN(O)C(=O)C(C)(C)C)cc2-c2ccc(Cl)cc2)cc1 [Compound 153] | 49
COc1ccc(-c2cc(CCC(=O)N(C)O)nn2-c2ccc(OC)cc2)cc1 [Compound 113] | 34
COc1ccc(-n2nc(CCC(=O)N(C)OC(=O)CCCC(=O)O)cc2-c2ccc(Cl)cc2)cc1 [Compound 132] | 30
COc1ccc(-n2nc(CCC(=O)N(O)C(C)=O)cc2-c2ccc(Cl)cc2)cc1 [Compound 171, N-Acetyl-3-[5-(4-chlorophenyl)-1-(4-methoxyphenyl)-3-pyrazolyl]-N-hydroxy-propanamide] | 62

Same assay, conditions: po, 336 h; 15 mpk p.o., rat; read-out: % INH. p.o. (percentage inhibition of pad swelling)

SMILES | inhibition in vivo at 15 mg/kg [%]
COc1ccc(-n2nc(CCC(=O)NO)c(Br)c2-c2ccc(Cl)cc2)cc1 [Compound 150] | 70
COc1ccc(-n2nc(CCC(=O)O)c(Br)c2-c2ccc(Cl)cc2)cc1 [Compound 147, 3-[4-Bromo-5-(4-Chlorophenyl)-1-(4-methoxyphenyl)-3-pyrazolyl]-propionic acid] | 79
CCOC(=O)C(CSC)NC(=O)CCc1cc(-c2ccc(Cl)cc2)n(-c2ccc(OC)cc2)n1 (stereo not shown) [Compound 101] | 57
COc1ccc(-n2nc(CCC(=O)N(C)OC(C)=O)cc2-c2ccc(Cl)cc2)cc1 [Compound 140] | 77
COc1ccc(-n2nc(CCC(=O)O)c(Cl)c2-c2ccc(Cl)cc2)cc1 [Compound 182] | 71
COc1ccc(-n2nc(CCNC(=O)C(=O)N(C)O)cc2-c2ccc(Cl)cc2)cc1 [Compound 163] | 28
COc1ccc(-n2nc(CCCOCC(=O)O)cc2-c2ccc(Cl)cc2)cc1 [Compound 93] | 17
COc1ccc(-n2nc(CCC(C)=NNc3nccs3)cc2-c2ccc(Cl)cc2)cc1 [Compound 173, 5-(4-Chlorophenyl)-1-(4-methoxyphenyl)-3-(3-oxobutyl)pyrazole thiazol-2-yl hydrazone] | 39
Nc1ccc(-n2nc(CCCO)cc2-c2ccc(Cl)cc2)cc1 [Compound 69] | 17
COc1ccc(-n2nc(CCC(=O)NCCO)cc2-c2ccc(Cl)cc2)cc1 [Compound 65] | 21
COc1ccc(-n2nc(CCC(=O)N(O)C3CCCCC3)cc2-c2ccc(Cl)cc2)cc1 [Compound 82, 3-[5-(4-chlorophenyl)-1-(4-methoxyphenyl)-3-pyrazolyl]-N-cyclohexyl-N-hydroxypropanamide] | 54
COc1ccc(-n2nc(CCC(=O)N(O)C(C)C)cc2-c2ccc(Cl)cc2)cc1 [Compound 81, 3-[5-(4-chlorophenyl)-1-(4-methoxyphenyl)-3-pyrazolyl]-N-hydroxy-N-isopropylpropanamide] | 50
COc1ccc(-n2nc(CCC(=O)N(C)O)cc2-c2ccccc2)cc1 [Compound 114] | 5
COc1ccc(-n2nc(CCC(=O)N(OC(C)=O)C(C)=O)cc2-c2ccc(Cl)cc2)cc1 [Compound 172, N-Acetyl-N-acetoxy-[5-(4-chlorophenyl)-1-(4-methoxyphenyl)-3-pyrazolyl]-propanamide] | 83
CCN(O)C(=O)CCc1cc(-c2ccc(Cl)cc2)n(-c2ccc(OC)cc2)n1 [Compound 83, 3-[5-(4-chlorophenyl)-1-(4-methoxyphenyl)-3-pyrazolyl]-N-ethyl-N-hydroxypropanamide] | 42
COc1ccc(-n2nc(CCC(=O)N(C)O)cc2-c2ccc(C)cc2)cc1 [Compound 111] | 75
COc1ccc(-n2nc(CCC(=N)N(C)O)cc2-c2ccc(Cl)cc2)cc1 [Compound 185, N-Hydroxy-N-methyl-2-[5-(4-chlorophenyl)-1-(4-methoxyphenyl)-3-pyrazolyl]ethylcarboximidamide Monohydrate] | 5

Same assay, conditions: po, 336 h; 25 mpk p.o., rat; read-out: % INH. p.o. (percentage inhibition of pad swelling)

SMILES | inhibition in vivo at 25 mg/kg [%]
CSc1ccc(-n2nc(CCCO)cc2-c2ccc(Cl)cc2)cc1 [Compound 47] | 48
COc1ccc(-n2nc(CCC(=O)ONC(C)(C)C)cc2-c2ccc(Cl)cc2)cc1 [Compound 57, 0-[2-[5-(4-Chlorophenyl)-1-(4-methoxyphenyl)-3-pyrazolyl]ethylcarbonyl]-N-tert-butylhydroxylamine] | 87
COc1ccc(-n2nc(CC/C=C\CCCC(=O)O)cc2-c2ccc(Cl)cc2)cc1 [Compound 32, Sodium 8-[5-(4-Chlorophenyl)-1-(4-methoxyphenyl)-3-pyrazolyl]-5(Z)-octenoate] | 69
OCCCc1cc(-c2ccc(Cl)cc2)n(-c2ccc(Br)cc2)n1 [Compound 35, 1-(4-bromophenyl)-5-(4-chlorophenyl)-3-(3-hydroxypropyl) pyrazole] | 65
COc1ccc(-n2nc(CCC(=O)N(C)O)cc2-c2ccc(F)cc2)cc1 [Compound 45, 3-[5-(4-Fluorophenyl)-1-(4-methoxyphenyl)-3-pyrazolyl]-N-hydroxy-N-methyl propanamide] | 51
COc1ccc(-n2nc(CCC(N)=O)cc2-c2ccc(Cl)cc2)cc1 [Compound 31] | 75

Same assay, conditions: po, 336 h; 30 mpk p.o., rat; read-out: % INH. p.o. (percentage inhibition of pad swelling)

SMILES | inhibition in vivo at 30 mg/kg [%]
CCN(CC)OC(=O)CCc1cc(-c2ccc(Cl)cc2)n(-c2ccc(OC)cc2)n1 [Compound 102] | 87

Same assay, conditions: po, 336 h; 40 mpk p.o., rat; read-out: % INH. p.o. (percentage inhibition of pad swelling)

SMILES | inhibition in vivo at 40 mg/kg [%]
COc1ccc(-n2nc(CC/C=C\CCCC(N)=O)cc2-c2ccc(Cl)cc2)cc1 [Compound 38] | 40
COc1ccc(-n2nc(CCC(=O)N(O)c3ccccc3)cc2-c2ccc(Cl)cc2)cc1 [Compound 84, 3-[5-(4-chlorophenyl)-1-(4-methoxyphenyl)-3-pyrazolyl]-N-hydroxy-N-phenylpropanamide] | 27
COc1ccc(-n2nc(CCC(=O)NC3=NCCS3)cc2-c2ccc(Cl)cc2)cc1 [Compound 85] | 40
COc1ccc(-n2nc(CCC(C)=O)cc2-c2ccc(Cl)cc2)cc1 [Compound 23, 5-(4-Chlorophenyl)-1-(4-methoxyphenyl)-3-(3-oxobutyl)pyrazole] | 53
COc1ccc(-n2nc(CCC(C)O)cc2-c2ccc(Cl)cc2)cc1 (stereo not shown) [Compound 20, 5-(4-Chlorophenyl)-3-(3-hydroxybutyl)-1-(4-methoxyphenyl) pyrazole] | 19

Same assay, conditions: po, 336 h; 50 mpk p.o., rat; read-out: % INH. p.o. (percentage inhibition of pad swelling)

SMILES | inhibition in vivo at 50 mg/kg [%]
CS(=O)(=O)c1ccc(-n2nc(CCCO)cc2-c2ccc(Cl)cc2)cc1 [Compound 36] | 40
OCCCc1cc(-c2ccc(Cl)cc2)n(-c2ccc(Cl)c(Cl)c2)n1 [Compound 8] | 41
